Target: TRPV1 (Homo sapiens, UniProt Q8NER1)
Assay: Calcium imaging (Fura-2 AM) in TRPV1-expressing HEK293 cells
Type: cell-based
Settings: compound alone, 5 μM

Sequence of TRPV1 (Q8NER1 whole entry): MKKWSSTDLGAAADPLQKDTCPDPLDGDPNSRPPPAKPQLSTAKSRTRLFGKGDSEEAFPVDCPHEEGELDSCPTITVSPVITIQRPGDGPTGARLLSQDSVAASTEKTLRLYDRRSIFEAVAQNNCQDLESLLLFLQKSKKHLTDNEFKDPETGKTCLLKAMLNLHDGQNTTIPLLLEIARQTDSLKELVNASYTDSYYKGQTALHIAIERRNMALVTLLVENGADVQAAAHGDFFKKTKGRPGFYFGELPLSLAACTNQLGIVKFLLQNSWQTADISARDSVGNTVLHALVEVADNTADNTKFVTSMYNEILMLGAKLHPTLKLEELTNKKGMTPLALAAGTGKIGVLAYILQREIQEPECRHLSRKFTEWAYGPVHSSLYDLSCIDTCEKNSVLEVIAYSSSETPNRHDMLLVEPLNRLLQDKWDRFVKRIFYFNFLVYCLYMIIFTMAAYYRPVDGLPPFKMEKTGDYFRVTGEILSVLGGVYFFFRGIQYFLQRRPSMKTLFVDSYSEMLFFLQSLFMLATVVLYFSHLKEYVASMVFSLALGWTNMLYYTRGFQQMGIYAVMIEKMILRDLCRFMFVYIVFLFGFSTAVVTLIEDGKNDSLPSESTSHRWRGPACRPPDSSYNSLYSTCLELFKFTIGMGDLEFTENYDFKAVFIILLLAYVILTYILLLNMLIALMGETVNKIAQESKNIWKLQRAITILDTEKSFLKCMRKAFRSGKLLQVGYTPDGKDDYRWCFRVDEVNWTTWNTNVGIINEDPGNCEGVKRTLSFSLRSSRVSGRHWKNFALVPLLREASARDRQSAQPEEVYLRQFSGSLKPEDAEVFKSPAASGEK

Q: How did the “Effect on intracellular calcium (Ca^2+) in TPRV1-expressing cells” value turn out when `CCCCC/C=C\C/C=C\C/C=C\C/C=C\CCCC(=O)NCCO` [Anandamide] was run?
A: increases intracellular calcium
